From the supplement of paper PMC12317010
Counter-ions that a name gives are not always drawn.

Test: collision cross section in nitrogen (drift tube, single-field); higher = larger gas-phase ion size
[1] = ion type: [M+Na], ion source: ESI, ion mode: Positive
[2] = ion type: [M-H], ion source: ESI, ion mode: Negative
[3] = ion type: [M+H], ion source: APCI, ion mode: Positive
[4] = ion type: [M+H], ion source: ESI, ion mode: Positive
[5] = ion type: [M+], ion source: APCI, ion mode: Positive
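Further: chemical standards at 10 µM analysed by drift tube IMS-QTOF MS in about 3.95 torr nitrogen, mean of duplicate injections differing ≤1%, mass error below 10 ppm.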

| SMILES | collision cross section in nitrogen [2] [Å²] | collision cross section in nitrogen [4] [Å²] | collision cross section in nitrogen [1] [Å²] | also measured |
| --- | --- | --- | --- | --- |
| C=C(C)C(=O)OCC(O)COc1ccc(C(C)(C)c2ccc(OCC(O)COC(=O)C(=C)C)cc2)cc1 (stereo unspecified) [Bisphenol A glycidyl methacrylate] |  |  | 215.5 |  |
| Oc1ccc(C(c2ccc(O)cc2)(C(F)(F)F)C(F)(F)F)cc1 [Bisphenol AF] | 165.6 |  |  |  |
| CCC(C)(c1ccc(O)cc1)c1ccc(O)cc1 [Bisphenol B] | 165.8 |  |  |  |
| CC(c1ccc(O)cc1)c1ccc(O)cc1 [Bisphenol E] | 158.3 |  |  |  |
| CC(C)(c1ccc(O)cc1)c1ccc(C(C)(C)c2ccc(O)cc2)cc1 [Bisphenol P] | 180.1 |  |  |  |
| COc1cc(OC)nc(Oc2cccc(Oc3nc(OC)cc(OC)n3)c2C(=O)O)n1 [Bispyribac-sodium] | 187.4 | 198.5 | 198.6 | collision cross section in nitrogen [3]: 198.3 Å² |
| Oc1c(Cl)cc(Cl)cc1Sc1cc(Cl)cc(Cl)c1O [Bithionol] | 168.8 | 154.7 |  |  |
| O=C(Nc1ccccc1-c1ccc(Cl)cc1)c1cccnc1Cl [Boscalid] | 177.1 | 175.5 |  |  |
| CCC(C)n1c(=O)[nH]c(C)c(Br)c1=O (stereo unspecified) [Bromacil] | 146.6 |  |  |  |
| O=c1oc2ccccc2c(O)c1C(CC(O)c1ccc(-c2ccc(Br)cc2)cc1)c1ccccc1 (stereo unspecified) [Bromadiolone] | 215.1 |  | 239.5 |  |
| CC(C)C[C@H]1C(=O)N2CCC[C@H]2[C@]2(O)O[C@](NC(=O)[C@@H]3C=C4c5cccc6[nH]c(Br)c(c56)C[C@H]4N(C)C3)(C(C)C)C(=O)N12 [Bromocriptine mesylate] | 251.7 | 247.4 | 248.5 | collision cross section in nitrogen [3]: 242.9 Å² |
| O=S1(=O)OC(c2cc(Br)c(O)c(Br)c2)(c2cc(Br)c(O)c(Br)c2)c2ccccc21 [Bromophenol blue] | 214.2 |  |  |  |
| N#Cc1cc(Br)c(O)c(Br)c1 [Bromoxynil] | 131.2 |  |  |  |
| Clc1ccc(C2(Cn3cncn3)CC(Br)CO2)c(Cl)c1 (stereo unspecified) [Bromuconazole] |  | 172.6 |  | collision cross section in nitrogen [3]: 172.7 Å² |
| COc1cc2c(cc1OC)[C@@]13CCN4CC5=CCO[C@H]6CC(=O)N2[C@H]1[C@H]6[C@H]5C[C@H]43 [Brucine] |  | 194.1 | 204.6 | collision cross section in nitrogen [3]: 191.3 Å² |
| CCCCc1c(C)nc(NCC)nc1OS(=O)(=O)N(C)C [Bupirimate] | 175.9 | 175.8 | 181.8 | collision cross section in nitrogen [3]: 175.8 Å² |
| CC(C)N1C(=O)N(c2ccccc2)CSC1=NC(C)(C)C [Buprofezin] |  | 173.9 | 188 | collision cross section in nitrogen [3]: 173.6 Å² |
| CC(NC(C)(C)C)C(=O)c1cccc(Cl)c1 (stereo unspecified) [Bupropion hydrochloride] |  | 158.6 |  |  |
| CCCCOCN(C(=O)CCl)c1c(CC)cccc1CC [Butachlor] |  |  | 184.4 |  |
| CC(C)N(Cc1ccccc1)C(=O)C(C)(C)C [Butam] |  | 154.5 | 163.4 | collision cross section in nitrogen [3]: 154.6 Å² |
| CNC(=O)ON=C(C)C(C)S(C)(=O)=O (stereo unspecified) [Butoxycarboxim] |  |  | 149.8 |  |
| CCCCCCOC(=O)CC(CC(=O)OCCCCCC)(OC(=O)CCC)C(=O)OCCCCCC [Butyryl-n-trihexylcitrate] |  |  | 245.5 |  |
| CCCCCCCCCCCC[N+](C)(C)CC(=O)O [C12-14-Alkyldimethyl betaines] |  |  |  | collision cross section in nitrogen (ion source: ESI, ion mode: Positive, ion type: [M]+ (permanent cation)): 183.8 Å² |
| O=[N+]([O-])c1ccc(Nc2ccc(Nc3ccccc3)c(S(=O)(=O)O)c2)c([N+](=O)[O-])c1 [C.I. Acid Orange 3] | 204.4 |  |  |  |
| O=S(=O)(O)c1cc(S(=O)(=O)O)c2c(N=Nc3ccccc3)c(O)ccc2c1 [C.I. Acid Orange 10] | 192.5 |  |  |  |
| Nc1ccc(N=Nc2ccccc2)c(N)c1 [C.I. Basic Orange 2] | 149.6 | 151.2 |  | collision cross section in nitrogen [3]: 150.7 Å² |
| N=C1C=CC(=C(c2ccc(N)cc2)c2ccc(N)cc2)C=C1 [C.I. Basic Red 9 monohydrochloride] | 177.9 | 174.1 |  | collision cross section in nitrogen [3]: 173.3 Å²; collision cross section in nitrogen [5]: 173.7 Å² |
| Nc1ccc(N=Nc2ccc(-c3ccc(N=Nc4c(S(=O)(=O)O)cc5cc(S(=O)(=O)O)c(N=Nc6ccccc6)c(O)c5c4N)cc3)cc2)c(N)c1 [C.I. Direct Black 38] | 304.4 | 311 |  |  |

Further lines, with some results ahead:

| collision cross section in nitrogen [2] [Å²] | collision cross section in nitrogen [4] [Å²] | SMILES | collision cross section in nitrogen [1] [Å²] | also measured |
| --- | --- | --- | --- | --- |
| 161.9 |  | CC(C)(c1ccc(O)cc1)c1ccc(O)cc1 [Bisphenol A] |  |  |
| 232.9 | 229.4 | COc1ccccc1Oc1c(NS(=O)(=O)c2ccc(C(C)(C)C)cc2)nc(-c2ncccn2)nc1OCCO [Bosentan hydrate] | 234.4 | collision cross section in nitrogen [3]: 229.9 Å² |
| 169.2 |  | Nc1c(S(=O)(=O)O)cc(Br)c2c1C(=O)c1ccccc1C2=O [Bromamine acid sodium salt] |  |  |
| 217 |  | Cc1c(C2(c3cc(Br)c(O)c(Br)c3C)OS(=O)(=O)c3ccccc32)cc(Br)c(O)c1Br [Bromcresol green] |  |  |
|  | 167.8 | CN(C)CCC(c1ccc(Br)cc1)c1ccccn1 (stereo unspecified) [Brompheniramine hydrogen maleate] |  | collision cross section in nitrogen [3]: 167.1 Å² |
| 204.6 |  | CCCC1O[C@@H]2C[C@H]3[C@@H]4CCC5=CC(=O)C=C[C@]5(C)[C@H]4[C@@H](O)C[C@]3(C)[C@]2(C(=O)CO)O1 (stereo partly specified) [Budesonide] | 230.4 |  |
|  | 176.1 | COc1cc(OC)c(C(=O)CCCN2CCCC2)c(OC)c1 [Buflomedil hydrochloride] | 178.9 | collision cross section in nitrogen [3]: 176 Å² |
| 183.2 |  | Cc1cc(-n2nc3ccc(Cl)cc3n2)c(O)c(C(C)(C)C)c1 [Bumetrizole] |  |  |
| 202.9 | 199.2 | O=C1CC2(CCCC2)CC(=O)N1CCCCN1CCN(c2ncccn2)CC1 [Buspirone] | 201.6 | collision cross section in nitrogen [3]: 199.2 Å²; collision cross section in nitrogen [5]: 196.8 Å² |
| 154.6 | 153.7 | C#CC(C)N(C)C(=O)Nc1ccc(Cl)cc1 (stereo unspecified) [Buturon] | 166.1 | collision cross section in nitrogen [3]: 152.2 Å² |
| 146.8 |  | CCCCOC(=O)C(C)CC (stereo unspecified) [Butyl 2-methylbutyrate] |  |  |
| 177.6 |  | CCCCCCCCCCCCCC(=O)OCCCC [Butyl myristate] |  |  |
| 149.4 |  | CCCCOC(=O)c1ccc(O)cc1 [Butylparaben] |  |  |
|  | 243 | CCN(CC)c1ccc(C(=C2C=CC(=[N+](CC)CC)C=C2)c2ccc(S(=O)(=O)O)cc2S(=O)(=O)[O-])cc1 [C.I. Acid Blue 1, sodium salt] | 255.4 |  |
| 182.7 |  | O=S(=O)(O)c1ccc(N=Nc2c(O)ccc3ccccc23)cc1 [C.I. Acid Orange 7] |  |  |
| 187.1 |  | Cc1cc(S(=O)(=O)O)ccc1N=Nc1c(O)ccc2ccccc12 [C.I. Acid Orange 8, monosodium salt] |  |  |
| 221 |  | Cc1ccc(N/N=c2\c(=O)cc/c(=N/Nc3ccc(S(=O)(=O)O)cc3)c2=O)c(C)c1 [C.I. Acid Orange 24, monosodium salt] |  |  |
| 231.2 | 219.7 | COc1ccc(N=Nc2cc(C)c(N=Nc3ccc(S(=O)(=O)O)cc3)cc2OC)cc1 [C.I. Acid Orange 156] |  |  |
| 210.2 |  | CC(=O)Nc1cc(S(=O)(=O)O)cc2cc(S(=O)(=O)O)c(N=Nc3ccccc3)c(O)c12 [C.I. Acid Red 1] |  |  |
| 193.7 |  | O=S(=O)(O)c1ccc(N=Nc2c(O)ccc3ccccc23)c2ccccc12 [C.I. Acid Red 88, monosodium salt] |  |  |
| 317.8 | 319.9 | Cc1ccc(S(=O)(=O)Oc2ccc(N=Nc3ccc(-c4ccc(N=Nc5c(O)ccc6cc(S(=O)(=O)O)cc(S(=O)(=O)O)c56)c(C)c4)cc3C)cc2)cc1 [C.I. Acid Red 114] |  |  |
| 218 |  | COc1ccccc1N=Nc1c(S(=O)(=O)O)cc2cc(S(=O)(=O)O)cc(NC(C)=O)c2c1O [C.I. Acid Violet 12, disodium salt] |  |  |
| 199.2 |  | CC1=NN(c2ccc(S(=O)(=O)O)cc2)C(=O)C1N=Nc1ccccc1 (stereo unspecified) [C.I. Acid Yellow 11, sodium salt] |  |  |
| 227.6 |  | CC1=NN(c2cc(Cl)c(S(=O)(=O)O)cc2Cl)C(=O)C1N=Nc1ccc(S(=O)(=O)O)cc1 (stereo unspecified) [C.I. Acid Yellow 17, disodium salt] |  |  |
| 202.7 | 196.9 | CC1=NN(c2cc(S(=O)(=O)O)ccc2Cl)C(=O)C1/N=N/c1ccccc1 (stereo unspecified) [C.I. Acid Yellow 34, monosodium salt] |  |  |
